# Data from patent US20140024700A1, “BLOOD-BORNE MIRNAS AS SURROGATE MARKERS OF DRUG EFFICACY FOR CARDIAC CONDITIONS” (miRagen Therapeutics, Inc., priority 2010, published 2014).
# “Also recorded” adds a separate entry of the source.
# Assays:
# miR-208a = assay: Real-time PCR of miR-208a in cardiac tissue, 4% NaCl diet (Example 1); format: in vivo, rat; details: 4% NaCl HS diet, 2 weeks after last injection, 5 or 25 mg/kg antimiR, control 25 mg/kg
# Method: (§1) This regulation of miR-499 and miR-208b was confirmed by Northern blot analysis (FIG. 2B).
# (§2) For in vivo real-time PCR analysis, RNA was extracted from cardiac tissue using Trizol (Invitrogen) after which two μg RNA from each tissue sample was used to generate cDNA using Super Script II reverse transcriptase per manufacturer's specifications (Invitrogen). To detect the level of miR-208 RT-PCR was performed using the Taqman MicroRNA assay (Applied Biosystems, ABI) according the manufacturer's recommendations, using 10-100 ng of total RNA. The expression of a subset of genes was analyzed by quantitative real time PCR using Taqman probes purchased from ABI.
# plasma miRNAs [1] = assay: Real-time PCR of plasma miRNAs, 4% NaCl diet (Example 1); format: in vivo, rat
# Text: Detection of miRNAs in plasma during various disease settings is showing increasing diagnostic promise (Cortez M A and Calin G A (2009) Expert Opin Biol Ther. 9, 703-711). To determine whether there is a specific miRNA that correlates with antimiR-208a efficacy, we examined a panel of muscle related miRNAs during HS treatment.
# (§3) RNA from plasma samples was isolated using Trizol LS Reagent (Invitrogen), using the manufacturer's protocol. Prior to RNA isolation, […] of two different synthetic C. elegans miRNA sequences were added to serve as internal controls for normalization of target miRNAs. The C. elegans sequences used were cel-miR-2 ([…], SEQ ID NO:5), and cel-lin-4 ([…]; SEQ ID NO:6) (Dharmacon). The final RNA pellet was re-suspended in a final volume equal to the initial plasma volume and 5 μl was used for subsequent RT-PCR reactions, as described above.
# Dahl salt-sensitive rats = assay: Dahl salt-sensitive rat model, 6% NaCl diet: body weight and survival (Example 3); format: in vivo
# plasma miRNAs [2] = assay: Real-time PCR of plasma miRNAs, 6% NaCl diet (Example 3); format: in vivo, rat
# Method: One week following the initiation of the 6.0% NaCl diet, rats were dosed subcutaneously (sc) with saline or oligonucleotides (M−10101, 5′-CTTTTTGCTCGTCTTA-3′ (SEQ ID NO: 12) or M-10591, 5′-TCCTAGAAAGAGTAGA-3′ (SEQ ID NO:13)) at 25 mg/kg every 2 weeks. Captopril or water were dosed daily by oral gavage. Echocardiography was performed every 2 weeks starting one week post […] dosing. The Captopril dose for rat was selected to match the standard human dose in man.
# as §3, with “Quantitative real-time PCR analysis from plasma. RNA from” for “RNA from”
# [3] = system: miR-499, miR-208b, Myh6, Myh7, Myh7b, HP1β; assay: Cardiac tissue markers by real-time PCR, Northern and Western blot, 4% NaCl diet (Example 1); format: in vivo, rat; details: 4% NaCl HS diet
# Text: as §1
# To assess the regulation of the myosin host genes, we examined Myh6, Myh7, and Myh7b mRNA levels.
# as §2
# Total RNA was isolated from cardiac tissue samples by using Trizol reagent (Gibco/BRL). Northern blots to detect microRNAs were performed as described previously described. A U6 probe served as a loading control (IDT). 10 μg of total RNA from cardiomyocytes or heart tissue was loaded on 20% acrylamide denaturing gels and transferred to Zeta-probe GT genomic blotting membranes (Bio-Rad) by electrophoresis. After transfer, the blots were cross-linked and baked at 80° C. for 1 hr. To maximize the sensitivity of miRNA detection, oligonucleotide probes were labeled with the Starfire Oligos Kit (IDT, Coralville, Iowa) and α-^32P dATP (Amersham or Perkin Elmer). Probes were hybridized to the membranes overnight at 39° C. in Rapid-hyb buffer (Amersham), after which they were washed twice for 10 minutes at 39° C. with 0.5×SSC containing 0.1% SDS. The blots were exposed and quantified by PhosphorImager analysis (GE HealthCare Life Sciences) and a U6 probe served as a loading control (ABI). The intensity of the radioactive signal was used to quantify the fold change in expression using a phosphorimager and ImageQuant (Bio-Rad).
# Western blot analysis. For Western blot analysis, Myosin was extracted from cardiac cells or tissue as described (H-amalainen, N. & Pette, D. Patterns of myosin isoforms in mammalian skeletal muscle fibres. Microsc Res Tech 30, 381-389 (1995)). MHC isoforms were detected by loading 0.1 ug protein lysate on a 4-15% gradient gel and separated by SDS PAGE and Western blotting was performed with mouse monoclonal anti-myosin (slow, skeletal M8421) (Sigma, Mo.), which is highly specific for Myh7.
# [4] = real-time PCR, Northern blot, listed as anti-miR-208a
# [5] = real-time PCR, listed as AntimiR-208a
# [6] = real-time PCR, listed as anti-miR-208a
substance,measurement,setting,value
"M-10101: antimiR targeting bases 2 to 17 of mature miR-208a, LNA and DNA linked by phosphorothioate bonds; 5′-CTTTTTGCTCGTCTTA-3′ (SEQ ID NO: 12) (all phosphorothioate, sugars by position and methylation of C not given here; LNA/DNA mixmer; listed as Homo sapiens)",miR-208a level in left and right ventricle,miR-208a; listed as Anti-miR-208a,dose-dependent inhibition
same,miR-208a level in left and right ventricle,miR-208a; listed as anti-miR-208a,dose-dependent reduction of miR-208a
same,Plasma miR-499,"plasma miRNAs [1]; 8 weeks after start of 4% HS diet, 7 weeks after onset of antimiR treatment, listed as antimiR-208a",significantly reduced; also recorded: significantly lowers
same,Plasma miR-423-5p,"plasma miRNAs [1]; 8 weeks after start of 4% HS diet, listed as antimiR-208a",reduced; also recorded: decrease
same,Plasma miR-1,plasma miRNAs [1]; Dahl hypertensive rats,no response
same,Plasma miR-208a,plasma miRNAs [1]; Dahl hypertensive rats,no response
same,Survival (Kaplan-Meier),"Dahl salt-sensitive rats; M-10101 25 mg/kg sc every 2 weeks, water po, 25 mg/kg",significantly improved survival; also recorded: No mortality was observed
same,Body weight,Dahl salt-sensitive rats; oligonucleotide 25 mg/kg sc every 2 weeks,partially prevented the body weight loss
same,Plasma miR-19b,plasma miRNAs [2],significantly increased
same,Plasma miR-223,plasma miRNAs [2],more significant decrease
same,"Plasma miR-423-5p, miR-106b, miR-16, miR-92a, miR-378, miR-210, miR-378*, miR-20b and miR-93",plasma miRNAs [2],decreased
same,"HP1β (miR-208a target) protein, Western blot",[3]; listed as anti-miR-208a,target depression
same,"Myh7 protein, Western blot of ventricular tissue",[3]; listed as anti-miR-208a,dose-dependent regulation of Myh7 was confirmed
same,"Myh7 protein, Western blot of ventricular tissue",[3]; listed as antimiR-208a,dose-dependent reduction
same,miR-208b level in cardiac tissue,[3]; [4],dose-dependent decrease in miR-208b levels
same,miR-499 expression in cardiac tissue,[3]; [4],dose-dependent decrease in expression; also recorded: dose-dependent reduction in miR-499
same,miR-208b level in cardiac tissue,"[3]; real-time PCR, Northern blot, listed as antimiR-208a",significantly blunts this response
same,Myh6 mRNA in cardiac tissue,[3]; [5],dose-dependently increases Myh6 expression
same,Myh7b mRNA in cardiac tissue,[3]; [5],reduces Myh7b expression
same,Myh7 mRNA (HS diet-induced increase) in cardiac tissue,[3]; [5],dose-dependently reduced
same,Myh6 mRNA in cardiac tissue,[3]; [6],normalized the decreased expression
same,Myh7b mRNA in cardiac tissue,[3]; [6],dose-dependent reduction
same,Myh7 mRNA (HS diet-induced increase) in cardiac tissue,[3]; [6],dose-dependently blunted
